From PMC11272598, “RG7774 (Vicasinabin), an orally bioavailable cannabinoid receptor 2 (CB2R) agonist, decreases retinal vascular permeability, leukocyte adhesion, and ocular inflammation in animal models” (Frontiers in Pharmacology, 2024)
“And” between values parts separate entries of the source, which are not always exact repeats. Identical values can stand only once.

Key:
Mouse CB1R = Mouse CB1R (Mus musculus, UniProt P47746); assay: Mouse cAMP assay in N18TG2 cells; format: cell-based; details: RG7774 10 µM, N18TG2 cells; read-out: Mean ± SEM % inhibition of control, Mouse CB1R (cAMP assay)
Description: The effect of RG7774 on the forskolin-stimulated accumulation of cAMP was determined using the LANCE ULTRAcAMP kit (PerkinElmer Life Sciences, MA, USA), according to the manufacturer’s instructions. Briefly, N18TG2 cells preincubated for 30 min with 1-methyl-3-isobutylxanthine (1 mM) were added to 0.5 µM forskolin preincubated with or without RG7774 for 15 min. Reactions were incubated for 30 min at 37°C and Time-resolved fluorescence was measured using a Victor V Multilabel counter (PerkinElmer Life Sciences). Data were transformed into cAMP concentrations using a standard curve.

human CB1R = human CB1R (Homo sapiens, UniProt P21554); assay: Forskolin-stimulated cAMP assay in CHO cells; format: cell-based; parameters: bgal (beta-galactosidase fragment of the PathHunter system); host or cells: CHO-K1; details: recombinant CHO cells
Description: The inhibitory effects of RG7774 on forskolin-stimulated accumulation of cAMP were determined using the cAMP-Nano-TRF detection kit (Roche Diagnostics, Penzberg, Germany), as previously described ([Porter et al., 2019]). CHOK1hCB1_bgal, CHOK1mCB2_bgal, and CHOK1hCB2_bgal cells (DiscoveRx, Fremont, CA, United States) were seeded 17–24 h prior to the experiment at a density of 3 × 10^4 cells per well in a black 96-well plate with a flat, clear bottom (Corning, Wiesbaden, Germany) prior to incubating in 5% CO2 at 37°C in a humidified incubator. The growth medium was exchanged with Krebs Ringer bicarbonate buffer containing 1 mM IBMX and 0.1% fatty acid-free BSA and incubated at 30°C for 1 h. RG7774 or positive control (CP55940) (1 µM) was added to a 0.1 mL final assay volume and the mixture was incubated at 30°C for 30 min. The assay was stopped by adding 50 μL 3x lysis reagent and shaking for 2 h at RT. The time-resolved energy transfer was measured using an LF502 Nanoscan FLT (IOM, Berlin, Germany) equipped with a laser excitation source. cAMP content was determined from a standard curve spanning 10–0.13 nM cAMP. Efficacies were expressed as a percentage relative to the positive control.

[1] = tested on: sigma (non-selective) (h); assay: CEREP radioligand binding; parameters: species or system human; details: radioligand [^3H]-DTG
Description: Supplement Table1.docx, table 3: Supplementary Table S3. RG7774 binding to non-CB1R/CB2R receptors, ion channels, transporters, and enzymes (CEREP, Celle l’Evescault, France; http://www.cerep.fr). | column: % inhibition of control SB (n = 2)

Mouse FAAH = biological target: T1, Mouse FAAH (Mus musculus, UniProt O08914); assay: Mouse FAAH assay (brain); format: biochemical; details: RG7774 10 µM; read-out: Mean ± SEM % inhibition of control, Mouse FAAH
T1 construct: Mouse brain was homogenized in 50 mM Tris-HCl (pH 7.4); from tissue; host or cells: mouse brain, 1000 g supernatant
Description: Mouse brain was homogenized in 50 mM Tris-HCl (pH 7.4) using a glass potter, centrifuged at 1000 g for 10 min, and the pellet was discarded. The supernatant (50 µg) was incubated with [^14C]-AEA (10 µM) (ARC, MO, USA) at 37°C for 15 min (Tris-HCl, pH 9.0) and reactions were stopped with a 2:1 (v/v) mixture of chloroform/methanol. [^14C]-ethanolamine release in the aqueous phase was measured as previously reported. Mouse supernatants (50 µg) were preincubated with RG7774 (10 µM) for 15 min and added directly to the incubation medium. Purified human FAAH (1.7 µg; Cayman Chemical Company, MI, USA) was incubated with [^14C]-AEA (10 µM) (ARC, MO, USA) at 37°C for 15 min (pH 9.0), as previously described. […] for 15 min with 8 different concentrations of RG7774 (0.1-500 µM) and added directly to the incubation medium (250 µL). Control experiments was carried out in the presence of the FAAH inhibitor, URB-597 (100 nM).

Jurkat cells = assay: xCELLigence impedance assay in Jurkat cells; format: cell-based, human; details: xCELLigence, 1 h
Description: Background impedance was determined in 96-well RTCA E-plates (Agilent Technologies, Santa Clara, CA, United States) coated with 150 μg/mL fibronectin/H2O (Sigma-Aldrich, St. Louis, MO, United States) and containing 50 μL RPMI 1640 assay medium (Fisher Scientific, Schwerte, Germany) 31870) with 10% fetal calf serum (FCS). Jurkat cells (200,000 cells per well) were seeded in 100 μL of growth medium, allowed to settle for 30 min at RT, and cultured overnight at 37°C and 5% CO2. Dose-response curves were generated by adding increasing concentrations of RG7774 to seeded Jurkat cells and performing impedance measurements (xCelligence RTCA M, Agilent Technologies, Santa Clara, CA, United States) at baseline and 1 h after treatment. Displacement experiments were performed by incubating seeded Jurkat cells with 10 μM SR144528, a CB2R-selective antagonist (Tocris Bioscience, Bristol, United Kingdom) or 10 μM RO6851228 (a CB2R-selective inverse agonist; in-house synthesis) in assay medium overnight at 37°C and 5% CO2. Cells were re-treated with 10 μM SR144528 or […] for 1 h and stimulated with 233 nM RG7774 in assay medium. […] Displacement data are presented as the percentage of the maximal normalized cell index determined after antagonist/inverse agonist treatment relative to the percentage of the normalized cell index at 109 nM RG7774 treatment.

pKa = format: physicochemical; details: basic
Description: (§1) TABLE 2 Physicochemical and ADMET profile for RG7774.

hERG = hERG (Homo sapiens, UniProt Q12809); assay: hERG inhibition
Description: as §1

T1 sequence (O08914 whole entry): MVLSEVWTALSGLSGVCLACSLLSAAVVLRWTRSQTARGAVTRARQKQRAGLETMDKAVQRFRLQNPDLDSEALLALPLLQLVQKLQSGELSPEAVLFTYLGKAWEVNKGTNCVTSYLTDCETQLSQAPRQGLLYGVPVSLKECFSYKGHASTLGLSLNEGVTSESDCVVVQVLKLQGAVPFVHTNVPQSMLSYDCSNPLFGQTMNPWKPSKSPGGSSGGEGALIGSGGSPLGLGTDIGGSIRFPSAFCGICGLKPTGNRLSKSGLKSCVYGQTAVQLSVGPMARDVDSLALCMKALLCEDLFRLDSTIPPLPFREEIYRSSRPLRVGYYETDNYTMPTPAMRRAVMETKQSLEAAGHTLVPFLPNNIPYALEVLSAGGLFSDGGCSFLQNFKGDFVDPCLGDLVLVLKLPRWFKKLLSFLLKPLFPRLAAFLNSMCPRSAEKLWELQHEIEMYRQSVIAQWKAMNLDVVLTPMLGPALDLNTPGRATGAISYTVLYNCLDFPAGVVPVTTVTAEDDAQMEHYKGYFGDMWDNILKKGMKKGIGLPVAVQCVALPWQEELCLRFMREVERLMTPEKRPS
Chain of hERG (Q12809 whole entry): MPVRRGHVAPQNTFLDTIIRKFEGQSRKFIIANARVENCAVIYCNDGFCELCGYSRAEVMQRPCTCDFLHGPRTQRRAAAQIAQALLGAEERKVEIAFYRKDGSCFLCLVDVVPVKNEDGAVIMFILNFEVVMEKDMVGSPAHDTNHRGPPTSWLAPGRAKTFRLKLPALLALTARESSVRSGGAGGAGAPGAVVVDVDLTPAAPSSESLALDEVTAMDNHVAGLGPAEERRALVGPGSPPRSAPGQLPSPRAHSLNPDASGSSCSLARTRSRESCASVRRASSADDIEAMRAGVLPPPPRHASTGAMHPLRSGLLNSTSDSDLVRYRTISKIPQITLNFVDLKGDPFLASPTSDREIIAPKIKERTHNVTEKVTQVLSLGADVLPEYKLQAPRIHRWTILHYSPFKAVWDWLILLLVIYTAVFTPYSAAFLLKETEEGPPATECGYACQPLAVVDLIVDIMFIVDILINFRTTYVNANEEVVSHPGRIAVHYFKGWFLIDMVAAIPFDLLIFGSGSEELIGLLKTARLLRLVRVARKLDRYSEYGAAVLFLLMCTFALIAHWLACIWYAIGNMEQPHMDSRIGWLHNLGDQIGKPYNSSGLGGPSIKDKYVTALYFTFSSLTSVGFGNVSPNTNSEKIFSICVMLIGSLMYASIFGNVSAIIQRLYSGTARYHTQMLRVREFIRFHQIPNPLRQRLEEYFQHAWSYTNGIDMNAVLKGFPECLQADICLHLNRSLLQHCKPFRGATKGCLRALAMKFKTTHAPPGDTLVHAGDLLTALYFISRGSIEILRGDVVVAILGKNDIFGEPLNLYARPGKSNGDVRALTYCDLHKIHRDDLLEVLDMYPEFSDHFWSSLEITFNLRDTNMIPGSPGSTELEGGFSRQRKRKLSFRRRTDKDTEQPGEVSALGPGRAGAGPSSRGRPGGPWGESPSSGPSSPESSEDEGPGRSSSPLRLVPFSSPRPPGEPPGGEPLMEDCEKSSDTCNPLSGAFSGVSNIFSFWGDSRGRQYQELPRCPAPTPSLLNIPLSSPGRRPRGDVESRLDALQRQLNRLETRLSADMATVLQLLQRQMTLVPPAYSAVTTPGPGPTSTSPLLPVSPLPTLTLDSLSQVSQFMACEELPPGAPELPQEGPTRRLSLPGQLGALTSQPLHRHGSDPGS
Chain of Mouse CB1R (P47746 whole entry): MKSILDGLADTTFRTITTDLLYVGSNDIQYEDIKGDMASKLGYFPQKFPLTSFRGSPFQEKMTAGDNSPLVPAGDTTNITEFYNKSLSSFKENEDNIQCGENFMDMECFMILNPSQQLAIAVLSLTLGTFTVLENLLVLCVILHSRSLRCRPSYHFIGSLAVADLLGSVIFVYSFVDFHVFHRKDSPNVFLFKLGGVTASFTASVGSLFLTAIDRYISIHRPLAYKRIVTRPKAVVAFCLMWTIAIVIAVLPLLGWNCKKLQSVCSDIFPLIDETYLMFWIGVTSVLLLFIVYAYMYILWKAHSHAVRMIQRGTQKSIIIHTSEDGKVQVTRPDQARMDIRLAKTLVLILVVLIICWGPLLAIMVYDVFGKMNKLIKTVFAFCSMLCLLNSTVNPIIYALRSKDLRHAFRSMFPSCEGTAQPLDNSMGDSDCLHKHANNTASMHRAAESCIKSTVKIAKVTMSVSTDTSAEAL
Chain of human CB1R (P21554 whole entry, the tested form may be a part): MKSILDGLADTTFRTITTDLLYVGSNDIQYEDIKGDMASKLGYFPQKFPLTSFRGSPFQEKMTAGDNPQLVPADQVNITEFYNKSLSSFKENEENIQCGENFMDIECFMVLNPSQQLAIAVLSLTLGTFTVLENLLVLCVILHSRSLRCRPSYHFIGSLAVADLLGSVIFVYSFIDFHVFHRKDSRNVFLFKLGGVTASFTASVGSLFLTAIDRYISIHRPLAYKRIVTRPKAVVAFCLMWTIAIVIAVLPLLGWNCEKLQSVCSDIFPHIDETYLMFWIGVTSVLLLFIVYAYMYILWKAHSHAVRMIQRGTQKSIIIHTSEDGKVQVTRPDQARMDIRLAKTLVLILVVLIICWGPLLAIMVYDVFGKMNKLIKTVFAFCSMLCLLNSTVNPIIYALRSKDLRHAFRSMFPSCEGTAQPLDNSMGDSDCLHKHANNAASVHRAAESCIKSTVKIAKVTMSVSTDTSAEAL

Question: For `Cn1nnnc1Cn1nnc2c(N3CC[C@H](O)C3)nc(C(C)(C)C)nc21` [RG7774, (S)-1-(5-tert-butyl-3-[(1-methyl-1H-tetrazol-5-yl)methyl]-3H-[1,2,3]triazolo[4,5-d]pyrimidin-7-yl)pyrrolidin-3-ol], which inhibition at 10 µM (Mouse CB1R) is on record?
Answer: 16.6%

Question: And the “effect on human CB1R in cAMP assay” value (human CB1R)?
Answer: no effect

Question: And the “% inhibition of control SB (n = 2)” value [1]?
Answer: –8.2%

Question: What about the inhibition at 10 µM (Mouse FAAH) of the same compound?
Answer: 6 ± 8.7%

Question: And the “EC50, cell index relative to maximal cell index of RG7774 at 233 nM” value (Jurkat cells)?
Answer: 10.8 nM and 10.8 ± 4.2 nM

Question: And the pKa (pKa)?
Answer: 2.63

Question: What about the IC50 (hERG) of the same compound?
Answer: > 20 µM
